# Results reported in patent publication EP1247803A2, “Indolinone compounds suitable for modulation of protein kinases” (Sugen, Inc., priority 1996, dated 1998).
# Key:
# EGFR = target: T1, EGFR (Homo sapiens, UniProt P00533); test: EGFR ELISA assay (in vitro kinase activity, EGFR captured from A431 cell lysate); assay type: biochemical; design: concentration or dose not given beside the values
# T1 construct: Add 7 ug A431 cell lysate per well (EGFR source); endogenous in cells; host or cells: A431
# In short: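 Receptor autophosphorylation was read by ELISA: anti-phosphotyrosine serum and an HRP-linked secondary with ABTS substrate, absorbance at 410 nm (reference 630 nm). The reaction ran 5 min with 3 µM ATP and 5 mM MnCl2 and was quenched by 20 mM EDTA. Compounds were first incubated 30 min with antibody-captured EGFR from A431 cell lysate.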
# MET = MET biochemical kinase assay; design: species or system human; concentration or dose not given beside the values
# In short: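 In this format, tyrosine phosphorylation of plate-captured human MET is followed in vitro after compound addition in ATP/divalent-cation buffer, detected by anti-phosphotyrosine-HRP with TMB substrate.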
# T1 sequence (P00533 25-1210): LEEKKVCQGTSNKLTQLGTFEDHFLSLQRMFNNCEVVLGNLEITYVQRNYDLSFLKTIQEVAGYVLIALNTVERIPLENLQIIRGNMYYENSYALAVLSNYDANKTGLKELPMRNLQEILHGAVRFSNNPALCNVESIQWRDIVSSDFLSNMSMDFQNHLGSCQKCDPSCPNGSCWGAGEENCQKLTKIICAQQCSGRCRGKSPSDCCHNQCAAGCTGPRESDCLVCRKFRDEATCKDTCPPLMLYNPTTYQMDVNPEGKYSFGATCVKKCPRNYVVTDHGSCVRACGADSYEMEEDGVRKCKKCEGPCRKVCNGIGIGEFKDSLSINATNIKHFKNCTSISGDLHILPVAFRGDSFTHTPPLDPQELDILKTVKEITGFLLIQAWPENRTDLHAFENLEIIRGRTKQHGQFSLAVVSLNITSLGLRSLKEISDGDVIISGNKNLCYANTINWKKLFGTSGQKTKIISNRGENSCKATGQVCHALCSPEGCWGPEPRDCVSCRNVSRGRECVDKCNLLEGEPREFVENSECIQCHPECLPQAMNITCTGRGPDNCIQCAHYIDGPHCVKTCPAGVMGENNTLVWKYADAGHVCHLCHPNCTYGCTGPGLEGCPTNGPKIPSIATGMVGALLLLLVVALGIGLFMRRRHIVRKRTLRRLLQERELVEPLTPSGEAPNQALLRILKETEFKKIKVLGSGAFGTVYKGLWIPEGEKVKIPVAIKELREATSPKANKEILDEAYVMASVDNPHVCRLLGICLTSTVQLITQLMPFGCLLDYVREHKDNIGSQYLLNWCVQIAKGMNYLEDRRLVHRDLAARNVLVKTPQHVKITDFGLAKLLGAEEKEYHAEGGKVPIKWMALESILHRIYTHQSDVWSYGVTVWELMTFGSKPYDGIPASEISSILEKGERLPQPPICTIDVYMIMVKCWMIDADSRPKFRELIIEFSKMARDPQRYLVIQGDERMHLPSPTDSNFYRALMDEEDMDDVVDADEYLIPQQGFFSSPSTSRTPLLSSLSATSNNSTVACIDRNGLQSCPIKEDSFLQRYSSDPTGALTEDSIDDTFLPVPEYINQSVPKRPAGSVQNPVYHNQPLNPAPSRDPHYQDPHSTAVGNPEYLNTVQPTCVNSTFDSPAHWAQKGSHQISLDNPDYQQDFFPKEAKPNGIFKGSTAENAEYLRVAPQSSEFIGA
smiles,measurement,setting,value
CNS(=O)(=O)c1ccc2c(c1)C(=Cc1ccc([N+](=O)[O-])cc1)C(=O)N2 [10734/D06],Biochem EGFR %Inhibition,EGFR,1.3%
same,Met Kinase % Inhibition,MET,30.6%
Cc1cc(C=C2C(=O)Nc3ccc(CCCl)cc32)cc(C)c1OCc1ccccc1 [10733/G07],Biochem EGFR %Inhibition,EGFR,18.1%
same,Met Kinase % Inhibition,MET,8.5%
Cc1c(Br)ccc2c1C(=Cc1ccc(Br)s1)C(=O)N2 [10734/C11],Biochem EGFR %Inhibition,EGFR,18.0%
same,Met Kinase % Inhibition,MET,23.9%
CCN(CC)c1ccc(C=C2C(=O)Nc3ccc(I)cc32)c(O)c1 [10734/B05],Biochem EGFR %Inhibition,EGFR,17.8%
same,Met Kinase % Inhibition,MET,67.8%
Cc1c(Br)ccc2c1C(=Cc1ccc(C(C)(C)C)cc1)C(=O)N2 [10734/C10],Biochem EGFR %Inhibition,EGFR,24.4%
same,Met Kinase % Inhibition,MET,11.6%
O=C1Nc2ccc(S(=O)(=O)N3CCOCC3)cc2C1=Cc1cc(Br)ccc1O [10733/F09],Biochem EGFR %Inhibition,EGFR,30.1%
same,Met Kinase % Inhibition,MET,52.8%
CNS(=O)(=O)c1ccc2c(c1)C(=Cc1ccc(Br)s1)C(=O)N2 [10734/D11],Biochem EGFR %Inhibition,EGFR,14.6%
same,Met Kinase % Inhibition,MET,33.9%
CC(C)(C)c1cc(C=C2C(=O)Nc3ccc(CCCl)cc32)cc(C(C)(C)C)c1OCc1ccccc1 [10733/G05],Biochem EGFR %Inhibition,EGFR,1.5%
same,Met Kinase % Inhibition,MET,1.8%
CC(C)(C)c1ccc(C=C2C(=O)Nc3c(Br)cc(Br)cc32)cc1 [10734/A10],Biochem EGFR %Inhibition,EGFR,27.8%
same,Met Kinase % Inhibition,MET,55.4%
O=C1Nc2ccc(S(=O)(=O)Nc3ccc(C(F)(F)F)cc3)cc2C1=Cc1cc(Cl)cc(Cl)c1O [10734/E03],Biochem EGFR %Inhibition,EGFR,55.0%
same,Met Kinase % Inhibition,MET,99.3%
Cc1c(Br)ccc2c1C(=Cc1cc(Cl)ccc1O)C(=O)N2 [10734/C04],Biochem EGFR %Inhibition,EGFR,38.1%
same,Met Kinase % Inhibition,MET,90.7%
O=C1Nc2ccc(S(=O)(=O)Nc3ccc(C(F)(F)F)cc3)cc2C1=Cc1ccc(Cl)c([N+](=O)[O-])c1 [10718/E08],Biochem EGFR %Inhibition,EGFR,9.3%
same,Met Kinase % Inhibition,MET,69.6%
COc1c(C(C)(C)C)cc(C=C2C(=O)Nc3ccc(CCCl)cc32)cc1C(C)(C)C [10733/G04],Biochem EGFR %Inhibition,EGFR,10.6%
same,Met Kinase % Inhibition,MET,20.3%
O=C1Nc2ccc(I)cc2C1=Cc1cc(Cl)ccc1O [10734/B04],Biochem EGFR %Inhibition,EGFR,38.7%
same,Met Kinase % Inhibition,MET,88.4%
CNS(=O)(=O)c1ccc2c(c1)C(=Cc1ccc(C(C)(C)C)cc1)C(=O)N2 [10734/D10],Biochem EGFR %Inhibition,EGFR,-4.4%
same,Met Kinase % Inhibition,MET,20.6%
Cc1cc(C=C2C(=O)Nc3ccc(S(=O)(=O)Nc4ccc(C(F)(F)F)cc4)cc32)cc(C)c1OCc1ccccc1 [10733/E07],Biochem EGFR %Inhibition,EGFR,19.9%
same,Met Kinase % Inhibition,MET,-10.1%
Cc1c(Br)ccc2c1C(=Cc1cccc(F)c1O)C(=O)N2 [10734/C08],Biochem EGFR %Inhibition,EGFR,35.1%
same,Met Kinase % Inhibition,MET,93.2%
CCN(CC)c1ccc(C=C2C(=O)Nc3c(Br)cc(Br)cc32)c(O)c1 [10734/A05],Biochem EGFR %Inhibition,EGFR,22.6%
same,Met Kinase % Inhibition,MET,69.9%
O=C1Nc2c(Br)cc(Br)cc2C1=Cc1ccc(O)c(Br)c1 [10734/A09],Biochem EGFR %Inhibition,EGFR,27.3%
same,Met Kinase % Inhibition,MET,88.4%
O=C1Nc2ccc(I)cc2C1=Cc1cccc(F)c1O [10734/B08],Biochem EGFR %Inhibition,EGFR,19.3%
same,Met Kinase % Inhibition,MET,56.1%
Cc1cc(C=C2C(=O)Nc3ccc(S(=O)(=O)N4CCOCC4)cc32)cc(C)c1OCc1ccccc1 [10733/F07],Biochem EGFR %Inhibition,EGFR,19.2%
same,Met Kinase % Inhibition,MET,-16.4%
Cc1c(Br)ccc2c1C(=Cc1ccc(O)c(Br)c1)C(=O)N2 [10734/C09],Biochem EGFR %Inhibition,EGFR,36.2%
same,Met Kinase % Inhibition,MET,88.6%
O=C1Nc2ccc(S(=O)(=O)Nc3ccc(C(F)(F)F)cc3)cc2C1=Cc1ccco1 [10718/E10],Biochem EGFR %Inhibition,EGFR,-7.5%
same,Met Kinase % Inhibition,MET,60.8%
CCN(CC)c1ccc(C=C2C(=O)Nc3ccc(Br)c(C)c32)c(O)c1 [10734/C05],Biochem EGFR %Inhibition,EGFR,9.3%
same,Met Kinase % Inhibition,MET,52.7%
O=C1Nc2ccc(CCCl)cc2C1=Cc1cc(Br)ccc1O [10733/G09],Biochem EGFR %Inhibition,EGFR,38.7%
same,Met Kinase % Inhibition,MET,41.4%
CNS(=O)(=O)c1ccc2c(c1)C(=Cc1cc(Br)cc(Br)c1O)C(=O)N2 [10734/D07],Biochem EGFR %Inhibition,EGFR,51.1%
same,Met Kinase % Inhibition,MET,92.0%
COc1cc(Br)cc(C=C2C(=O)Nc3ccc(S(=O)(=O)N4CCOCC4)cc32)c1O [10733/F08],Biochem EGFR %Inhibition,EGFR,17.2%
same,Met Kinase % Inhibition,MET,66.6%
O=C1Nc2ccc(I)cc2C1=Cc1cc(Br)cc(Br)c1O [10734/B07],Biochem EGFR %Inhibition,EGFR,65.5%
same,Met Kinase % Inhibition,MET,93.2%
O=C1Nc2c(Br)cc(Br)cc2C1=Cc1ccc(Br)s1 [10734/A11],Biochem EGFR %Inhibition,EGFR,12.5%
same,Met Kinase % Inhibition,MET,51.9%
COc1c(O)ccc(C=C2C(=O)Nc3ccc(CCCl)cc32)c1[N+](=O)[O-] [10733/G11],Biochem EGFR %Inhibition,EGFR,-1.0%
same,Met Kinase % Inhibition,MET,32.6%
O=C1Nc2c(Br)cc(Br)cc2C1=Cc1cc(Br)cc(Br)c1O [10734/A07],Biochem EGFR %Inhibition,EGFR,15.2%
same,Met Kinase % Inhibition,MET,89.3%
CCN(CC)c1ccc(C=C2C(=O)Nc3ccc(S(=O)(=O)NC)cc32)c(O)c1 [10734/D05],Biochem EGFR %Inhibition,EGFR,-9.6%
same,Met Kinase % Inhibition,MET,55.0%
CNS(=O)(=O)c1ccc2c(c1)C(=Cc1cccc(F)c1O)C(=O)N2 [10734/D08],Biochem EGFR %Inhibition,EGFR,-13.7%
same,Met Kinase % Inhibition,MET,49.8%
CNS(=O)(=O)c1ccc2c(c1)C(=Cc1cc(Cl)ccc1O)C(=O)N2 [10734/D04],Biochem EGFR %Inhibition,EGFR,-10.7%
same,Met Kinase % Inhibition,MET,46.9%
CNS(=O)(=O)c1ccc2c(c1)C(=Cc1ccc(O)c(Br)c1)C(=O)N2 [10734/D09],Biochem EGFR %Inhibition,EGFR,21.0%
same,Met Kinase % Inhibition,MET,88.0%
CC(C)(C)c1cc(C=C2C(=O)Nc3ccc(S(=O)(=O)Nc4ccc(C(F)(F)F)cc4)cc32)cc(C(C)(C)C)c1OCc1ccccc1 [10733/E05],Biochem EGFR %Inhibition,EGFR,58.3%
same,Met Kinase % Inhibition,MET,2.9%
CCOc1cccc(C=C2C(=O)Nc3ccc(S(=O)(=O)Nc4ccc(C(F)(F)F)cc4)cc32)c1O [10734/E02],Biochem EGFR %Inhibition,EGFR,-10.8%
same,Met Kinase % Inhibition,MET,66.9%
COc1c(O)ccc(C=C2C(=O)Nc3ccc(S(=O)(=O)N4CCOCC4)cc32)c1[N+](=O)[O-] [10733/F11],Biochem EGFR %Inhibition,EGFR,0.6%
same,Met Kinase % Inhibition,MET,44.4%
CCOc1cccc(C=C2C(=O)Nc3ccc(S(=O)(=O)NC)cc32)c1O [10734/D02],Biochem EGFR %Inhibition,EGFR,5.2%
same,Met Kinase % Inhibition,MET,46.0%
O=C1Nc2ccc(I)cc2C1=Cc1ccc(Br)s1 [10734/B11],Biochem EGFR %Inhibition,EGFR,50.9%
same,Met Kinase % Inhibition,MET,83.6%
CC(C)(C)c1cc(C=C2C(=O)Nc3ccc(S(=O)(=O)N4CCOCC4)cc32)cc(I)c1OCc1ccccc1 [10733/F02],Biochem EGFR %Inhibition,EGFR,11.3%
same,Met Kinase % Inhibition,MET,71.6%
O=C1Nc2ccc(S(=O)(=O)Nc3ccc(C(F)(F)F)cc3)cc2C1=Cc1ccc([N+](=O)[O-])o1 [10718/E11],Biochem EGFR %Inhibition,EGFR,-15.2%
same,Met Kinase % Inhibition,MET,37.5%
COc1c([N+](=O)[O-])cc(C=C2C(=O)Nc3ccc(S(=O)(=O)Nc4ccc(C(F)(F)F)cc4)cc32)cc1C(C)(C)C [10733/E03],Biochem EGFR %Inhibition,EGFR,10.7%
same,Met Kinase % Inhibition,MET,26.8%
COc1cc(Br)cc(C=C2C(=O)Nc3ccc(CCCl)cc32)c1O [10733/G08],Biochem EGFR %Inhibition,EGFR,44.2%
same,Met Kinase % Inhibition,MET,79.0%
